Reference: patent publication US20050164182A1, “Nucleotide analogues” (priority 2001, published 2005)
Entries after “also recorded” stand apart in the source; their conditions may differ.

Assays:
Thermosequenase = test: Primer extension reactions: incorporation of fluorescently labelled deoxynucleotide triphosphates by DNA polymerase; format: biochemical; conditions: number of consecutive fluor-labelled nucleotides added; templates with 2, 3 or 8 consecutive A residues; 48° C. for 45 minutes
[1] = biological target: T1, subtilisin (Subtilopeptidase A, type VIII) (Bacillus licheniformis, UniProt P00780); test: Protease mediated cleavage of FamHex-GGL-β-A-2′dU, HPLC and MALDI-TOF analysis; format: biochemical; conditions: 2 hours at 37° C., pH 7.5
T1 construct: purchased Sigma Chemical Co. UK
T1 sequence (P00780 106-379): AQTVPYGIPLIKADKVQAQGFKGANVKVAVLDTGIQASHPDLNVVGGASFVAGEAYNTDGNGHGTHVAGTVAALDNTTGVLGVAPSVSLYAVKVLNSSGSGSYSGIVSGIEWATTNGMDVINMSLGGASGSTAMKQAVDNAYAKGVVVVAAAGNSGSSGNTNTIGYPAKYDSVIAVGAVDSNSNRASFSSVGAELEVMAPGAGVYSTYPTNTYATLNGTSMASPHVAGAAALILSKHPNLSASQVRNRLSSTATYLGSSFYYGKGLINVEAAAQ
Procedure: A 10 μg aliquot of the substrate FAMHEX-GGL-β-A 2′dU (compound 6 above) was dissolved in 0.1M sodium acetate buffer pH 7.5 containing 5 mM calcium acetate. The substrate solution was digested at 37° C. for 2 hours in 200 μl in the presence of 0.5 units of subtilisin (Subtilopeptidase A, type VIII, Sigma Chemical Co. UK).
The resulting digest was ultrafiltered using a Microcon YM10 Concentrator (Milipore Ltd., UK) and the filtrate analysed by HPLC (Gilson 170, Gilson, UK) on a Sephasil™ peptide C-18 column (Amersham Biosicences, UK). […] These eluted at 29.8 (I), 32.6 (II), 26.7 (III) and 37.1 (IV) minutes on an acetonitrile gradient of 50% to 70%. The peaks were collected and analysed by MALDI-TOF mass spectrometry (Bruker Biflex II, Brucker, Germany). A matrix of 10 mg/ml 3-hydroxycinnamic acid in acetonitrile and 1% TFA was used for the analysis. The mass spectrometer was calibrated with 100 mM Bradykinin 1-7 (Sigma Chemical Co., UK).

| predominant product with templates 3, 4 and 5 (Thermosequenase) | Substance | cleavage of the linker by subtilisin [1] | site of hydrolysis by subtilisin ([1]; molecular ion of 717 in peak II) |
| --- | --- | --- | --- |
| One addition | Alexa Fluor 568-5-dUTP [Alexa 568-5-dUTP] | – | – |
| One addition | Alexa Fluor 594-5-dUTP [Alexa 594-5-dUTP] | – | – |
| One addition, with minor two additions | Cy3 dUTP | – | – |
| – | 5-N-[N-(6-Fluorescein-5(and 6)carboxamidohexanoyl)-Gly-Gly-Leu-β-alanyl]-propargylamino-2′-deoxyuridine [Compound 6] | consistent with the cleavage of the linker by the subtilisin enzyme; also recorded: readily digested by subtilisin | at the peptide bond on the carboxyl side of the leucine residue; also recorded: cleaves at the leucine residue |
| One addition, with minor two additions | Cy5 dUTP | – | – |

| Substance | predominant product with templates 3, 4 and 5 (Thermosequenase) | cleavage of the linker by subtilisin [1] | site of hydrolysis by subtilisin ([1]; molecular ion of 717 in peak II) |
| --- | --- | --- | --- |
| Texas Red-5-dUTP | One addition, with very slight two additions | – | – |
| Lissamine-5-dUTP | One addition, with very slight two additions | – | – |
